Experimental data as given in DBAASP.
Values after ≈ are worked out from the molar mass of the structure shown.

Columns and labels:
Test in all cases: ≥ marks a high value that may be exact or a test limit, other limits are often not marked, values filed in µg/mL are converted to µM
[1] = tested on: Klebsiella pneumoniae ATCC 27736
[2] = tested on: Bacillus subtilis ATCC 6633
[3] = tested on: Pseudomonas aeruginosa ATCC BAA-427
Bacillus subtilis 168 HT = tested on: Bacillus subtilis 168 HT
Escherichia coli MG1655 = tested on: Escherichia coli MG1655
[4] = tested on: Escherichia coli ATCC 25922
[5] = tested on: Staphylococcus aureus ATCC 25923
[6] = tested on: Pseudomonas aeruginosa ATCC 9027
[7] = tested on: Enterococcus faecalis PCM 2673
[8] = tested on: Candida albicans ATCC 10231
[9] = tested on: Escherichia coli ATCC 11775
[10] = tested on: Micrococcus luteus ATCC 49732
[11] = tested on: Staphylococcus aureus ATCC 12600
[12] = tested on: Staphylococcus aureus ATCC BAA-1556
[13] = tested on: Escherichia coli K12 MG1655
[14] = tested on: Candida albicans ATCC 14053

Structure (SMILES): CC[C@H](C)[C@H](NC(=O)CNC(=O)[C@H](CCCN=C(N)N)NC(=O)[C@H](Cc1ccccc1)NC(=O)[C@H](C)NC(=O)[C@H](Cc1cnc[nH]1)NC(=O)[C@H](Cc1cnc[nH]1)NC(=O)[C@H](Cc1ccccc1)NC(=O)[C@@H](N)Cc1ccccc1)C(=O)N[C@H](C(=O)N[C@@H](Cc1cnc[nH]1)C(=O)N[C@H](C(=O)NCC(=O)N[C@@H](CCCCN)C(=O)N[C@H](C(=O)N[C@H](C(=O)N[C@@H](Cc1cnc[nH]1)C(=O)N[C@@H](CCCN=C(N)N)C(=O)N[C@@H](CC(C)C)C(=O)N[C@H](C(=O)N[C@H](C(=O)NCC(N)=O)[C@@H](C)O)C(C)C)[C@@H](C)CC)[C@@H](C)O)C(C)C)C(C)C [FFHHAFRGIVHVGKTIHRLVTG]
- MIC [1]: 12 µM (≈ 30.3 µg/mL)
- MIC [2]: 16 µM (≈ 40.5 µg/mL)
- MIC [3]: 20 µM (≈ 50.6 µg/mL)

Structure (SMILES): CC[C@H](C)[C@H](NC(=O)[C@H](Cc1cnc[nH]1)NC(=O)[C@H](Cc1cnc[nH]1)NC(=O)[C@H](Cc1ccccc1)NC(=O)[C@@H](N)Cc1ccccc1)C(=O)N[C@@H](Cc1ccccc1)C(=O)N[C@@H](CCCN=C(N)N)C(=O)NCC(=O)N[C@H](C(=O)N[C@H](C(=O)N[C@@H](Cc1cnc[nH]1)C(=O)N[C@H](C(=O)NCC(=O)N[C@@H](CCCCN)C(=O)N[C@H](C(=O)N[C@H](C(=O)N[C@@H](Cc1cnc[nH]1)C(=O)N[C@@H](CCCN=C(N)N)C(=O)N[C@@H](CC(C)C)C(=O)N[C@H](C(=O)N[C@H](C(=O)NCC(N)=O)[C@@H](C)O)C(C)C)[C@@H](C)CC)[C@@H](C)O)C(C)C)C(C)C)C(C)C [FFHHIFRGVVHVGKTIHRLVTG]
- MIC [1]: 6 µM (≈ 15.3 µg/mL)
- MIC [2]: 8 µM (≈ 20.5 µg/mL)
- MIC [3]: 12 µM (≈ 30.7 µg/mL)

Structure (SMILES): CC[C@H](C)[C@H](NC(=O)[C@H](CCCN=C(N)N)NC(=O)[C@H](CCSC)NC(=O)[C@@H](NC(=O)[C@H](CCCN=C(N)N)NC(=O)[C@@H](N)Cc1ccccc1)[C@@H](C)CC)C(=O)N[C@@H](CC(C)C)C(=O)N[C@@H](CCCN=C(N)N)C(=O)N[C@H](C(=O)N[C@@H](CC(C)C)C(=O)N[C@@H](CCCCN)C(=O)N[C@@H](CC(C)C)C(=O)O)C(C)C [FRIMRILRVLKL]
- MIC (Bacillus subtilis 168 HT): 10.3 µM (≈ 16 µg/mL)
- MIC (Escherichia coli MG1655): 10.3 µM (≈ 16 µg/mL)

Structure (SMILES): CC[C@H](C)[C@H](NC(=O)[C@H](CCCCN)NC(=O)[C@H](CCCCN)NC(=O)[C@H](C)NC(=O)[C@@H](NC(=O)[C@H](CC(=O)O)NC(=O)[C@H](Cc1ccccc1)NC(=O)[C@H](CC(C)C)NC(=O)CN)[C@@H](C)CC)C(=O)N[C@@H](C)C(=O)N[C@@H](CCC(=O)O)C(=O)N[C@@H](CO)C(=O)N[C@@H](Cc1ccccc1)C(N)=O [GLFDIAKKIAESF]
- MIC [4]: 356 µM (≈ 512 µg/mL)
- MIC [5]: > 356 µM
- MIC [6]: > 356 µM
- MIC [7]: ≥ 178 µM
- MIC [8]: 178 µM (≈ 256 µg/mL)

Structure (SMILES): CC[C@H](C)[C@H](NC(=O)[C@H](CCCCN)NC(=O)[C@H](CCCCN)NC(=O)[C@@H](NC(=O)[C@@H](NC(=O)[C@H](CC(=O)O)NC(=O)[C@H](Cc1ccccc1)NC(=O)[C@H](CC(C)C)NC(=O)CN)[C@@H](C)CC)[C@@H](C)CC)C(=O)N[C@@H](C)C(=O)N[C@@H](CCC(=O)O)C(=O)N[C@@H](CO)C(=O)N[C@@H](C)C(N)=O [GLFDIIKKIAESA]
- MIC [4]: 91.1 µM (≈ 128 µg/mL)
- MIC [5]: > 365 µM
- MIC [6]: > 365 µM
- MIC [7]: ≥ 91.1 µM
- MIC [8]: 365 µM (≈ 512 µg/mL)

Structure (SMILES): CC[C@H](C)[C@H](NC(=O)[C@H](C)NC(=O)[C@H](C)NC(=O)[C@H](CCC(=O)O)NC(=O)[C@H](CCCCN)NC(=O)CNC(=O)[C@@H](NC(=O)[C@H](CC(N)=O)NC(=O)[C@H](CCCCN)NC(=O)[C@@H](NC(=O)[C@@H](NC(=O)[C@H](CO)NC(=O)[C@H](Cc1c[nH]c2ccccc12)NC(=O)[C@H](CC(C)C)NC(=O)CN)[C@@H](C)O)[C@@H](C)CC)C(C)C)C(=O)N[C@@H](C)C(=O)N[C@@H](C)C(=O)NCC(=O)N[C@@H](CCCCN)C(=O)N[C@@H](C)C(=O)N[C@H](C(=O)N[C@@H](CC(C)C)C(=O)NCC(=O)N[C@@H](CO)C(=O)N[C@@H](CC(C)C)C(N)=O)C(C)C [GLWSTIKNVGKEAAIAAGKAVLGSL]
- MIC [9]: 0.5 µM (≈ 1.23 µg/mL)
- MIC [10]: 2 µM (≈ 4.91 µg/mL)
- MIC [11]: 0.5 µM (≈ 1.23 µg/mL)

Structure (SMILES): CC[C@H](C)[C@H](NC(=O)[C@H](Cc1c[nH]c2ccccc12)NC(=O)[C@H](CCCN=C(N)N)NC(=O)[C@H](CCCN=C(N)N)NC(=O)[C@H](Cc1c[nH]c2ccccc12)NC(=O)[C@@H](N)CCCCN)C(=O)N[C@@H](CC(C)C)C(=O)N[C@@H](Cc1c[nH]c2ccccc12)C(=O)N[C@@H](CC(C)C)C(N)=O [KWRRWILWL]
- MIC [12]: 12.5 µM (≈ 16.9 µg/mL)

Structure (SMILES): CC[C@H](C)[C@H](NC(=O)[C@H](Cc1c[nH]c2ccccc12)NC(=O)[C@H](CCCN=C(N)N)NC(=O)[C@H](CCCN=C(N)N)NC(=O)[C@H](Cc1c[nH]c2ccccc12)NC(=O)[C@@H](N)CCCCN)C(=O)N[C@@H](CCCN=C(N)N)C(=O)N[C@@H](C)C(=O)N[C@@H](CC(C)C)C(N)=O [KWRRWIRAL]
- MIC [12]: 25 µM (≈ 32.1 µg/mL)

Structure (SMILES): CC[C@H](C)[C@H](NC(=O)[C@H](CCC(N)=O)NC(=O)[C@@H](NC(=O)[C@@H](N)CC(C)C)C(C)C)C(=O)NCC(=O)N[C@H](C(=O)N[C@@H](CCCCN)C(=O)N[C@H](C(=O)N[C@H](C(=O)NCC(=O)N[C@H](C(=O)NCC(=O)N[C@@H](CCCN=C(N)N)C(=O)N[C@@H](CC(N)=O)C(=O)N[C@@H](Cc1ccc(O)cc1)C(=O)N[C@@H](C)C(=O)N[C@@H](C)C(=O)N[C@@H](Cc1cnc[nH]1)C(=O)O)C(C)C)C(C)C)[C@@H](C)CC)[C@@H](C)O [LVQIGTKIVGVGRNYAAH]
- MIC (Bacillus subtilis 168 HT): ≥ 33.8 µM
- MIC [13]: ≥ 33.8 µM

Structure (SMILES): CC[C@H](C)[C@H](NC(=O)[C@H](Cc1c[nH]c2ccccc12)NC(=O)[C@H](CCCN=C(N)N)NC(=O)[C@H](CCCN=C(N)N)NC(=O)[C@H](Cc1c[nH]c2ccccc12)NC(=O)[C@@H](N)CC(C)C)C(=O)N[C@@H](CCCN=C(N)N)C(=O)N[C@@H](Cc1c[nH]c2ccccc12)C(=O)N[C@@H](CC(C)C)C(N)=O [LWRRWIRWL]
- MIC [12]: 12.5 µM (≈ 17.3 µg/mL)

Structure (SMILES): CC(C)[C@H](NC(=O)[C@H](C)NC(=O)[C@@H](NC(=O)[C@H](C)NC(=O)[C@@H]1CCCN1)[C@@H](C)O)C(=O)N[C@@H](Cc1ccccc1)C(=O)N[C@@H](CCCCN)C(=O)O [PATAVFK]
- MIC [9]: ≥ 101 µM
- MIC [10]: ≥ 910 µM
- MIC [11]: ≥ 303 µM
- MIC [14]: ≥ 303 µM

Structure (SMILES): CC(C)[C@H](NC(=O)[C@H](C)NC(=O)[C@@H](NC(=O)CNC(=O)[C@@H]1CCCN1)[C@@H](C)O)C(=O)N[C@@H](C)C(=O)N[C@@H](CCCCN)C(=O)O [PGTAVAK]
- MIC [9]: ≥ 97 µM
- MIC [10]: ≥ 97 µM
- MIC [11]: ≥ 97 µM
- MIC [14]: ≥ 97 µM

Structure (SMILES): CC[C@H](C)[C@H](NC(=O)[C@H](CCCCN)NC(=O)[C@@H](N)Cc1c[nH]c2ccccc12)C(=O)N[C@@H](Cc1ccccc1)C(=O)N[C@@H](CCCCN)C(=O)N[C@@H](CC(C)C)C(=O)N[C@@H](CCCCN)C(=O)N[C@@H](CC(C)C)C(=O)N[C@@H](CCCN=C(N)N)C(=O)N[C@@H](CCSC)C(=O)N[C@@H](CC(C)C)C(=O)N[C@@H](Cc1c[nH]c2ccccc12)C(=O)O [WKIFKLKLRMLW]
- MIC (Bacillus subtilis 168 HT): ≥ 38.5 µM
- MIC (Escherichia coli MG1655): ≥ 77 µM
